Laboratory results: patent publication US4229204A, “Trifluoromethylphenyl isoxazolyl benzoates” (Monsanto Company, priority 1978, dated 1980)

How the values were obtained:
Format in all cases: in vivo
Velvetleaf [1] = test: Post-emergent herbicidal test; settings: 4 WAT, 11.2 kg/h
Method: (§1) The post-emergent tests were conducted as follows:
(§2) The active ingredients are applied in spray form to two or three week old specimens of various plant species. The spray, a solution or wettable powder suspension containing the appropriate rate of active ingredient to give the desired test rate and a surfactant, is applied to the plants.
(§3) The compounds were also tested by utilizing the above procedure on the following plant species: […]

Barnyardgrass [2] = test: Post-emergent herbicidal test; settings: 4 WAT, 11.2 kg/h
Method: as §1, §2, §3

Lambsquarters [3] = test: Post-emergent herbicidal test; settings: 4 WAT, 11.2 kg/h
Method: as §1, §2, §3

Quackgrass [4] = test: Post-emergent herbicidal test; settings: 4 WAT, 11.2 kg/h
Method: as §1, §2, §3

Johnsongrass [5] = test: Post-emergent herbicidal test; settings: 4 WAT, 11.2 kg/h
Method: as §1, §2, §3

Downy Brome [6] = test: Post-emergent herbicidal test; settings: 4 WAT, 11.2 kg/h
Method: as §1, §2, §3

Yellow Nutsedge [7] = test: Post-emergent herbicidal test; settings: 4 WAT, 11.2 kg/h
Method: as §1, §2, §3

Smartweed [8] = test: Post-emergent herbicidal test; settings: 4 WAT, 11.2 kg/h
Method: as §1, §2, §3

Cocklebur [9] = test: Post-emergent herbicidal test; settings: 4 WAT, 11.2 kg/h
Method: as §1, §2, §3

Canada Thistle [10] = test: Post-emergent herbicidal test; settings: 4 WAT, 11.2 kg/h
Method: as §1, §2, §3

Morningglory [11] = test: Post-emergent herbicidal test; settings: 4 WAT, 11.2 kg/h
Method: as §1, §2, §3

Panicum Spp. = test: Pre-emergent herbicidal test; settings: 4 WAT
Method: (§4) The pre-emergent test was conducted as follows:
(§5) A good grade of top soil was placed in aluminum pans and compacted to a depth of three-eighths to one-half inch from the top of the pan. On the top of the soil was placed a predetermined number of seeds or vegetative propagules of various plant species which were pressed into the soil surface. The soil required to level fill the pans after seeding or adding vegetative propagules was weighed into a pan. A known amount of the active ingredient applied in a solvent or as a wettable powder and the soil were thoroughly mixed, and used as a cover layer for prepared pans.
(§6) The herbicidal rating was obtained by means of a fixed scale based on the percent injury of each plant species. The ratings are defined as follows: […]

Wheat = test: Pre-emergent herbicidal test; settings: 4 WAT
Method: as §4, §5, §6

Sorghum = test: Pre-emergent herbicidal test; settings: 4 WAT
Method: as §4, §5, §6

Wild Buckwheat = test: Pre-emergent herbicidal test; settings: 4 WAT
Method: as §4, §5, §6

Hemp Sesbania = test: Pre-emergent herbicidal test; settings: 4 WAT
Method: as §4, §5, §6

Soybean = test: Pre-emergent herbicidal test; settings: 4 WAT
Method: as §4, §5, §6

Crabgrass = test: Pre-emergent herbicidal test; settings: 4 WAT
Method: as §4, §5, §6

Rice = test: Pre-emergent herbicidal test; settings: 4 WAT
Method: as §4, §5, §6

Sugarbeet = test: Pre-emergent herbicidal test; settings: 4 WAT
Method: as §4, §5, §6

Velvetleaf [12] = test: Pre-emergent herbicidal test; settings: 4 WAT
Method: as §4, §5, §6, §3

Barnyardgrass [13] = test: Pre-emergent herbicidal test; settings: 4 WAT
Method: as §4, §5, §6, §3

Lambsquarters [14] = test: Pre-emergent herbicidal test; settings: 4 WAT
Method: as §4, §5, §6, §3

Quackgrass [15] = test: Pre-emergent herbicidal test; settings: 4 WAT, 11.2 kg/h
Method: as §4, §5, §6, §3

Johnsongrass [16] = test: Pre-emergent herbicidal test; settings: 4 WAT, 11.2 kg/h
Method: as §4, §5, §6, §3

Downy Brome [17] = test: Pre-emergent herbicidal test; settings: 4 WAT
Method: as §4, §5, §6, §3

Yellow Nutsedge [18] = test: Pre-emergent herbicidal test; settings: 4 WAT, 11.2 kg/h
Method: as §4, §5, §6, §3

Smartweed [19] = test: Pre-emergent herbicidal test; settings: 4 WAT
Method: as §4, §5, §6, §3

Cocklebur [20] = test: Pre-emergent herbicidal test; settings: 4 WAT
Method: as §4, §5, §6, §3

Canada Thistle [21] = test: Pre-emergent herbicidal test; settings: 4 WAT, 11.2 kg/h
Method: as §4, §5, §6, §3

Morningglory [22] = test: Pre-emergent herbicidal test; settings: 4 WAT
Method: as §4, §5, §6, §3

Measured: herbicidal rating
Further: ranges in brackets are in %.

CCCCCOC(=O)c1ccccc1-c1cc(-c2cccc(C(F)(F)F)c2)no1 [Example 7, n-Pentyl 2-[3-[3-(Trifluoromethyl)Phenyl]-5-Isoxazolyl]Benzoate]
0 (0-24): Quackgrass [4] | Downy Brome [6] | Panicum Spp.; 1.12 kg/h | Wheat; 0.28 kg/h | Sorghum; 0.28 kg/h | Hemp Sesbania; 0.28 kg/h | Soybean; 0.28 kg/h | Soybean; 1.12 kg/h | Crabgrass; 0.28 kg/h | Crabgrass; 1.12 kg/h | Velvetleaf [12]; 0.28 kg/h | Velvetleaf [12]; 1.12 kg/h | Velvetleaf [12]; 11.2 kg/h | Yellow Nutsedge [18] | Smartweed [19]; 0.28 kg/h | Cocklebur [20]; 0.28 kg/h | Cocklebur [20]; 1.12 kg/h | Morningglory [22]; 0.28 kg/h
2 (50-74): Johnsongrass [5] | Cocklebur [9] | Canada Thistle [10] | Morningglory [11] | Panicum Spp.; 5.60 kg/h | Wild Buckwheat; 1.12 kg/h | Wild Buckwheat; 5.60 kg/h | Hemp Sesbania; 5.60 kg/h | Rice; 1.12 kg/h | Sugarbeet; 1.12 kg/h | Sugarbeet; 5.60 kg/h | Barnyardgrass [13]; 0.28 kg/h | Barnyardgrass [13]; 1.12 kg/h | Lambsquarters [14]; 1.12 kg/h | Lambsquarters [14]; 5.60 kg/h | Quackgrass [15] | Downy Brome [17]; 0.28 kg/h | Downy Brome [17]; 5.60 kg/h | Smartweed [19]; 1.12 kg/h | Smartweed [19]; 5.60 kg/h | Smartweed [19]; 11.2 kg/h | Morningglory [22]; 1.12 kg/h | Morningglory [22]; 5.60 kg/h
3 (75-100): Sorghum; 5.60 kg/h | Wild Buckwheat; 0.28 kg/h | Soybean; 5.60 kg/h | Crabgrass; 5.60 kg/h | Rice; 5.60 kg/h | Sugarbeet; 0.28 kg/h | Barnyardgrass [13]; 5.60 kg/h | Barnyardgrass [13]; 11.2 kg/h | Lambsquarters [14]; 11.2 kg/h
1 (25-49): Velvetleaf [1] | Barnyardgrass [2] | Lambsquarters [3] | Yellow Nutsedge [7] | Smartweed [8] | Wheat; 1.12 kg/h | Wheat; 5.60 kg/h | Sorghum; 1.12 kg/h | Hemp Sesbania; 1.12 kg/h | Rice; 0.28 kg/h | Velvetleaf [12]; 5.60 kg/h | Lambsquarters [14]; 0.28 kg/h | Johnsongrass [16] | Downy Brome [17]; 1.12 kg/h | Downy Brome [17]; 11.2 kg/h | Cocklebur [20]; 5.60 kg/h | Cocklebur [20]; 11.2 kg/h | Canada Thistle [21] | Morningglory [22]; 11.2 kg/h

O=C(O)c1ccccc1-c1cc(-c2cccc(C(F)(F)F)c2)no1 [Example 11, 2-[3-(3-Trifluoromethylphenyl)-5-Isoxazolyl]Benzoic Acid]
3 (75-100): Panicum Spp.; 5.60 kg/h | Sorghum; 5.60 kg/h | Wild Buckwheat; 5.60 kg/h | Hemp Sesbania; 1.12 kg/h | Soybean; 1.12 kg/h | Soybean; 5.60 kg/h | Crabgrass; 5.60 kg/h | Rice; 1.12 kg/h | Rice; 5.60 kg/h | Velvetleaf [12]; 11.2 kg/h | Barnyardgrass [13]; 1.12 kg/h | Barnyardgrass [13]; 11.2 kg/h | Lambsquarters [14]; 5.60 kg/h | Quackgrass [15] | Downy Brome [17]; 11.2 kg/h | Smartweed [19]; 5.60 kg/h | Smartweed [19]; 11.2 kg/h | Cocklebur [20]; 11.2 kg/h | Canada Thistle [21]
2 (50-74): Barnyardgrass [2] | Lambsquarters [3] | Downy Brome [6] | Smartweed [8] | Panicum Spp.; 1.12 kg/h | Wild Buckwheat; 1.12 kg/h | Hemp Sesbania; 5.60 kg/h | Crabgrass; 1.12 kg/h | Sugarbeet; 1.12 kg/h | Sugarbeet; 5.60 kg/h | Velvetleaf [12]; 5.60 kg/h | Barnyardgrass [13]; 5.60 kg/h | Lambsquarters [14]; 1.12 kg/h | Lambsquarters [14]; 11.2 kg/h | Downy Brome [17]; 1.12 kg/h | Downy Brome [17]; 5.60 kg/h | Smartweed [19]; 1.12 kg/h | Morningglory [22]; 5.60 kg/h | Morningglory [22]; 11.2 kg/h
0 (0-24): Quackgrass [4] | Wheat; 1.12 kg/h | Johnsongrass [16] | Cocklebur [20]; 1.12 kg/h
1 (25-49): Velvetleaf [1] | Johnsongrass [5] | Yellow Nutsedge [7] | Cocklebur [9] | Canada Thistle [10] | Morningglory [11] | Wheat; 5.60 kg/h | Sorghum; 1.12 kg/h | Velvetleaf [12]; 1.12 kg/h | Yellow Nutsedge [18] | Cocklebur [20]; 5.60 kg/h | Morningglory [22]; 1.12 kg/h
